# Source: patent publication US20140135359A1, “METHODS OF DESIGNING, PREPARING, AND USING NOVEL PROTONOPHORES” (priority 2012, published 2014)
# Tested on: isolated rat liver mitochondria
# Test: Uncoupling activity: increase in basal (state 4) oxygen consumption by oxygraphy
# Assay type: biochemical
# Settings: Suppl. Table 1; 100 μM; 2-3 mitochondrial preparations
row,SMILES,Measured Uncoupling Activity (% uncoupling ± SEM @ 100 μM) [% uncoupling]
1,O=C(/C=C/c1ccccc1)c1ccc(O)cc1 [4′-hydroxychalcone],74 ± 14
2,"O=C1C[C@@H](c2ccc(O)cc2)Oc2cc(O)cc(O)c21 (racemic) [(±) naringenin, naringenin]",4 ± 2
3,Oc1cccc(O)c1O [pyrogallol],1 ± 1
4,COc1cc(/C=C/C(=O)O)ccc1O [ferulic acid],−1 ± 1
5,C(=C\c1ccccc1)/c1ccccc1 [trans-stilbene],−1 ± 1
6,"COc1ccc(C2CC(=O)c3c(O)cc(O)cc3O2)cc1O (racemic) [(±) hesperetin, hesperetin]",5 ± 1
7,O=c1c(O)c(-c2ccccc2O)oc2cc(O)cc(O)c12 [datiscetin],33 ± 3
8,O=c1c(-c2ccc(O)cc2)coc2cc(O)ccc12 [daidzein],6 ± 1
9,O=C(CCc1ccc(O)cc1)c1c(O)cc(O)cc1O [phloretin],15 ± 3
10,O=c1cc(-c2ccc(O)cc2)oc2cc(O)cc(O)c12 [apigenin],19 ± 3
11,O=c1c(O)c(-c2ccc(O)cc2O)oc2cc(O)cc(O)c12 [morin],1 ± 0
12,"Oc1cc(O)c2c(c1)OC(c1ccc(O)c(O)c1)C(O)C2 (single isomer, unassigned; (+)) [(+) catechin, catechin]",−2 ± 0
13,Cc1ccc(C(C)C)cc1O [carvacrol],7 ± 2

# Same assay, conditions: Table 1A; 100 μM; relative to ADP-stimulated respiration = 100%
row,SMILES,Measured Uncoupling (% uncoupling ± SEM @ 100 μM) [% uncoupling]
1,O=C(/C=C/c1ccccc1)c1ccc(O)cc1 [4′-hydroxychalcone],74 ± 14

# Same assay, conditions: dose-escalation
row,SMILES,"uncoupling potency compared with 2,4-dinitrophenol"
1,O=c1c(O)c(-c2ccccc2O)oc2cc(O)cc(O)c12 [datiscetin],"potency on the order of that of 2,4-dinitrophenol"

# Same assay, conditions: dose-escalation, logarithmic scales
row,SMILES,slope of the linear portion of the concentration-to-activity relationship
1,O=c1c(O)c(-c2ccccc2O)oc2cc(O)cc(O)c12 [datiscetin],0.44

# Same assay, conditions: test conc. 25 μM; increase in basal (state 4) oxygen consumption as % of average ADP-stimulated (state 3) rate in vehicle-treated mitochondria
row,SMILES,Uncoupling (%)
1,Oc1cc(O)cc(/C=C/c2ccc(O)c(O)c2)c1 [piceatannol (trans)],1 ± 1
2,O=C(/C=C/c1ccccc1)c1ccc(O)cc1 [4′-hydroxychalcone],13 ± 2
3,"COc1ccc(C2CC(=O)c3c(O)cc(O)cc3O2)cc1O (racemic) [(±) hesperetin, hesperetin]",1 ± 1
4,O=c1c(O)c(-c2ccccc2O)oc2cc(O)cc(O)c12 [datiscetin],15 ± 2
5,O=C(/C=C/c1ccc(O)c(O)c1)OCCc1ccccc1 [caffeic acid phenethyl ester],56 ± 13
6,O=c1c(-c2ccc(O)cc2)coc2cc(O)ccc12 [daidzein],3 ± 1
7,O=C(CCc1ccc(O)cc1)c1c(O)cc(O)cc1O [phloretin],3 ± 1
8,O=c1cc(-c2ccc(O)cc2)oc2cc(O)cc(O)c12 [apigenin],9 ± 1

# Same assay, conditions: test conc. 100 μM; increase in basal (state 4) oxygen consumption as % of average ADP-stimulated (state 3) rate in vehicle-treated mitochondria
row,SMILES,Uncoupling (%)
1,C(=Cc1ccccc1)c1ccccc1 [stilbene (trans)],−1 ± 1
2,Oc1cc(O)cc(/C=C/c2ccc(O)c(O)c2)c1 [piceatannol (trans)],5 ± 1
3,O=C(/C=C/c1ccccc1)c1ccc(O)cc1 [4′-hydroxychalcone],74 ± 14
4,"O=C1C[C@@H](c2ccc(O)cc2)Oc2cc(O)cc(O)c21 (racemic) [(±) naringenin, naringenin]",4 ± 2
5,Oc1cccc(O)c1O [pyrogallol],1 ± 1
6,COc1cc(/C=C/C(=O)O)ccc1O [ferulic acid],−1 ± 1
7,"COc1ccc(C2CC(=O)c3c(O)cc(O)cc3O2)cc1O (racemic) [(±) hesperetin, hesperetin]",5 ± 1
8,O=c1c(O)c(-c2ccccc2O)oc2cc(O)cc(O)c12 [datiscetin],33 ± 3
9,O=C(/C=C/c1ccc(O)c(O)c1)OCCc1ccccc1 [caffeic acid phenethyl ester],57 ± 35
10,O=c1c(-c2ccc(O)cc2)coc2cc(O)ccc12 [daidzein],6 ± 1
11,O=C(CCc1ccc(O)cc1)c1c(O)cc(O)cc1O [phloretin],15 ± 3
12,O=c1cc(-c2ccc(O)cc2)oc2cc(O)cc(O)c12 [apigenin],19 ± 3
13,O=c1c(O)c(-c2ccc(O)cc2O)oc2cc(O)cc(O)c12 [morin],1 ± 0
14,"Oc1cc(O)c2c(c1)OC(c1ccc(O)c(O)c1)C(O)C2 (single isomer, unassigned; (+)) [(+) catechin, catechin]",−2 ± 0
15,Cc1ccc(C(C)C)cc1O [carvacrol],7 ± 2

# Tested on: isolated rat liver mitochondria
# Test: Residual functional capacity / inhibitory effect on ADP-stimulated (state 3) oxygen consumption
# Assay type: biochemical
# Settings: screening at 100 μM
row,SMILES,inhibition of ADP-stimulated oxygen consumption
1,O=c1c(O)c(-c2ccccc2O)oc2cc(O)cc(O)c12 [datiscetin],inhibitory activity
2,O=c1c(O)c(-c2ccc(O)cc2O)oc2cc(O)cc(O)c12 [morin],inhibitory activity
3,Oc1ccc(C=Cc2cc(O)cc(O)c2)cc1 [resveratrol],inhibitory activity

# Same assay, conditions: test conc. 25 μM
row,SMILES,Inhibitory effect (%)
1,Oc1cc(O)cc(/C=C/c2ccc(O)c(O)c2)c1 [piceatannol (trans)],64
2,O=C(/C=C/c1ccccc1)c1ccc(O)cc1 [4′-hydroxychalcone],7
3,"COc1ccc(C2CC(=O)c3c(O)cc(O)cc3O2)cc1O (racemic) [(±) hesperetin, hesperetin]",8
4,O=c1c(O)c(-c2ccccc2O)oc2cc(O)cc(O)c12 [datiscetin],33
5,O=C(/C=C/c1ccc(O)c(O)c1)OCCc1ccccc1 [caffeic acid phenethyl ester],5
6,O=c1c(-c2ccc(O)cc2)coc2cc(O)ccc12 [daidzein],19
7,O=C(CCc1ccc(O)cc1)c1c(O)cc(O)cc1O [phloretin],0
8,O=c1cc(-c2ccc(O)cc2)oc2cc(O)cc(O)c12 [apigenin],28

# Same assay, conditions: test conc. 25 μM; functional capacity (state 3 minus state 4 rate) as % of vehicle-treated mitochondria
row,SMILES,Residual capacity (%)
1,Oc1cc(O)cc(/C=C/c2ccc(O)c(O)c2)c1 [piceatannol (trans)],35 ± 7
2,O=C(/C=C/c1ccccc1)c1ccc(O)cc1 [4′-hydroxychalcone],80 ± 2
3,"COc1ccc(C2CC(=O)c3c(O)cc(O)cc3O2)cc1O (racemic) [(±) hesperetin, hesperetin]",91 ± 8
4,O=c1c(O)c(-c2ccccc2O)oc2cc(O)cc(O)c12 [datiscetin],52 ± 9
5,O=C(/C=C/c1ccc(O)c(O)c1)OCCc1ccccc1 [caffeic acid phenethyl ester],39 ± 12
6,O=c1c(-c2ccc(O)cc2)coc2cc(O)ccc12 [daidzein],78 ± 5
7,O=C(CCc1ccc(O)cc1)c1c(O)cc(O)cc1O [phloretin],99 ± 12
8,O=c1cc(-c2ccc(O)cc2)oc2cc(O)cc(O)c12 [apigenin],63 ± 9

# Same assay, conditions: test conc. 100 μM
row,SMILES,Inhibitory effect (%)
1,C(=Cc1ccccc1)c1ccccc1 [stilbene (trans)],1
2,Oc1cc(O)cc(/C=C/c2ccc(O)c(O)c2)c1 [piceatannol (trans)],89
3,O=C(/C=C/c1ccccc1)c1ccc(O)cc1 [4′-hydroxychalcone],0
4,"O=C1C[C@@H](c2ccc(O)cc2)Oc2cc(O)cc(O)c21 (racemic) [(±) naringenin, naringenin]",31
5,Oc1cccc(O)c1O [pyrogallol],16
6,COc1cc(/C=C/C(=O)O)ccc1O [ferulic acid],9
7,"COc1ccc(C2CC(=O)c3c(O)cc(O)cc3O2)cc1O (racemic) [(±) hesperetin, hesperetin]",14
8,O=c1c(O)c(-c2ccccc2O)oc2cc(O)cc(O)c12 [datiscetin],67
9,O=C(/C=C/c1ccc(O)c(O)c1)OCCc1ccccc1 [caffeic acid phenethyl ester],43
10,O=c1c(-c2ccc(O)cc2)coc2cc(O)ccc12 [daidzein],26
11,O=C(CCc1ccc(O)cc1)c1c(O)cc(O)cc1O [phloretin],44
12,O=c1cc(-c2ccc(O)cc2)oc2cc(O)cc(O)c12 [apigenin],44
13,O=c1c(O)c(-c2ccc(O)cc2O)oc2cc(O)cc(O)c12 [morin],60
14,"Oc1cc(O)c2c(c1)OC(c1ccc(O)c(O)c1)C(O)C2 (single isomer, unassigned; (+)) [(+) catechin, catechin]",2
15,Cc1ccc(C(C)C)cc1O [carvacrol],10

# Same assay, conditions: test conc. 100 μM; functional capacity (state 3 minus state 4 rate) as % of vehicle-treated mitochondria
row,SMILES,Residual capacity (%)
1,C(=Cc1ccccc1)c1ccccc1 [stilbene (trans)],99 ± 3
2,Oc1cc(O)cc(/C=C/c2ccc(O)c(O)c2)c1 [piceatannol (trans)],6 ± 3
3,O=C(/C=C/c1ccccc1)c1ccc(O)cc1 [4′-hydroxychalcone],26 ± 19
4,"O=C1C[C@@H](c2ccc(O)cc2)Oc2cc(O)cc(O)c21 (racemic) [(±) naringenin, naringenin]",65 ± 7
5,Oc1cccc(O)c1O [pyrogallol],83 ± 17
6,COc1cc(/C=C/C(=O)O)ccc1O [ferulic acid],91 ± 9
7,"COc1ccc(C2CC(=O)c3c(O)cc(O)cc3O2)cc1O (racemic) [(±) hesperetin, hesperetin]",81 ± 2
8,O=c1c(O)c(-c2ccccc2O)oc2cc(O)cc(O)c12 [datiscetin],0 ± 0
9,O=C(/C=C/c1ccc(O)c(O)c1)OCCc1ccccc1 [caffeic acid phenethyl ester],0 ± 0
10,O=c1c(-c2ccc(O)cc2)coc2cc(O)ccc12 [daidzein],68 ± 4
11,O=C(CCc1ccc(O)cc1)c1c(O)cc(O)cc1O [phloretin],41 ± 17
12,O=c1cc(-c2ccc(O)cc2)oc2cc(O)cc(O)c12 [apigenin],37 ± 8
13,O=c1c(O)c(-c2ccc(O)cc2O)oc2cc(O)cc(O)c12 [morin],39 ± 3
14,"Oc1cc(O)c2c(c1)OC(c1ccc(O)c(O)c1)C(O)C2 (single isomer, unassigned; (+)) [(+) catechin, catechin]",98 ± 5
15,Cc1ccc(C(C)C)cc1O [carvacrol],83 ± 2
